In patent publication US7084166B2, “Bis-heterocyclic compounds with antitumour and chemosensitising activity” (Sigma-Tau Industrie Farmaceutichee Riunite S.p.A., priority 2000, dated 2006):
Where “and” joins values, the source holds several entries; their conditions need not be identical. Equal entries are not always repeated. Where two headings read alike, the source gives them in different places.

What was measured:
Assay type in all cases: cell-based
[1] = system: LoVo (human colon adenocarcinoma); assay: Cytotoxicity test on sensitive tumour cell lines (sulforodamine B test); settings: 24 h incubation, survival after 48 h, ± S.D., read-out: antiproliferative activity IC50, Lovo
Method: (§1) This test was used to evaluate the survival of the human cell lines MCF-7 (human mammary carcinoma), LoVo (human colon adenocarcinoma), and MES-SA (human uterine sarcoma). The tumour cells were incubated with the compound, at scalar concentrations, (500 μM÷0.97 μM) for 24 hours; the compound was then removed and cell survival was evaluated after 48 hours using the sulforodamine B test (J. Natl. Cancer Inst. 82, 1107–1112). The antiproliferative activity of the compounds was evaluated in terms of the IC50 (concentration of the molecule that inhibits 50% of cell survival) processed with a curve-fitting program (Am. J. Physiol. 1978., 235, E97–E102) and expressed as μM±S.D.

[2] = system: MCF-7 (human mammary carcinoma); assay: as above; settings: 24 h incubation, survival after 48 h, ± S.D., read-out: antiproliferative activity IC50, MCF-7
Method: as §1

[3] = system: MES-SA (human uterine sarcoma); assay: as above; settings: 24 h incubation, survival after 48 h, ± S.D., read-out: antiproliferative activity IC50, Mes-Sa
Method: as §1

[4] = system: NB4 cells (acute promyelocytic leukaemia); assay: Flow cytofluorimetric analysis of cell cycle; set-up: APOPTOSIS: unit not given here; settings: ATRA 0.01 μM alone, day 3
Method: The first line used was the NB4 cell line, bearing the t(15;17) chromosomal translocation which generates the fusion protein PML/RARα.
(§2) To assess the effect of the tested compounds on the various phases of the cell cycle, on the third day of treatment 500,000 cells were harvested, centrifuged at 1,000 rpm for 10 minutes, washed twice in PBS w/o (PBS without calcium and magnesium) and fixed in a solution of 50% PBS w/o+50% methanol/acetone (1:4 v/v) for at least 1 hour; the cells were then centrifuged as described, washed in PBS w/o and centrifuged again.
(§3) 200 μl of propidium iodide 100 μg/ml and 200 μl of RNase 150 kU/mg were then added to the cell pellet.
(§4) After a 30-min incubation in the dark at room temperature, the samples were analysed by flow cytofluirometry.

[5] = system: HL60 cells (acute promyelocytic leukaemia); assay: Flow cytofluorimetric analysis of cell cycle; settings: ATRA 0.5 μM alone, day 3
Method: The second line used was the HL60 cell line which responds to ATRA (but is less sensitive than the NB4 cell line).
The HL60 and NB4 cells were seeded at a density of 150,000 cells/ml in RPMI 1640 medium containing 10% foetal calf serum, and were treated with the tested compounds in the presence and absence of suboptimal doses of ATRA (5–10 nM for NB4 and 0.5 μM for HL60, respectively) in the dark, and returned to the incubator for 3 days without ever replacing the culture medium.
as §2, §3, §4

[6] = system: LoVo-Dx (human colon adenocarcinoma); assay: Cytotoxicity test on resistant tumour cell lines, tested compound alone; settings: 24 h incubation, survival after 48 h, ± SD
Method: (§5) This test was used to evaluate the survival of human cell lines resistant to doxorubicin (about 100 times) and cross-resistant to daunorubicin, actinomycin D, mitoxantrone, vincristine, vinblastin, taxol, colchicine, and etoposide.
(§6) The following cell lines were used: MCF-7-Dx (human mammary carcinoma), LoVo-Dx (human colon adenocarcinoma), MES-SA Dx (human uterine sarcoma).
(§7) Before using the association doxorubicin-tested compound, the cytotoxicity of the cells was evaluated with the tested compound (alone) as follows: the cells were incubated with the compound, at scalar concentrations (500 μM÷0.97 μM), for 24 hours; the compound was then removed and cell survival was evaluated after 48 hours with the above-mentioned sulforodamine B test. The antiproliferative activity of the compounds was evaluated in terms of IC50 (concentration of the compound that inhibits 50% of cell survival) processed with the above-mentioned curve-fitting program.

[7] = system: MCF-7-Dx (human mammary carcinoma); assay: as above; settings: 24 h incubation, survival after 48 h, ± SD
Method: as §5, §6, §7

[8] = system: MES-SA Dx (human uterine sarcoma); assay: as above; settings: 24 h incubation, survival after 48 h, ± SD
Method: as §5, §6, §7

Compound | IC50 [1] | IC50 [2] | IC50 [6] | IC50 [7] | IC50 ([1]; Homo sapiens, LoVo) | IC50 ([2]; Homo sapiens, MCF7) | IC50 ([6]; Homo sapiens, LoVo/DX) | IC50 ([7]; Homo sapiens, MCF7/DX) | IC50 ([8]; Homo sapiens, MES-SA Dx) | also measured
FCCCC[C@@H](c1cc2ccccc2[nH]1)c1c[nH]c2ccccc12 (racemic) [ST 1421, (R,S)-5-fluoro-1,1-(indol-2-ylindol-3-yl)-pentane] | 20.7 ± 0.7 µM | 20.4 ± 2.8 µM |  |  |  |  |  |  |  | 
CCCC(c1cc2ccccc2[nH]1)c1c[nH]c2ccccc12 (racemic) [ST 1625, (R,S)-1,1-(indol-2-yl, indol-3-yl) butane] | 17.1 ± 3.8 µM | 13.4 ± 1 µM |  |  |  |  |  |  |  | IC50 [3]: 14.1 ± 3.8 µM
OCCCC(c1cc2cc3c(cc2[nH]1)OCO3)c1c[nH]c2cc3c(cc12)OCO3 (racemic) [ST 1731, (R,S)-4-hydroxy-1,1-di-(5,6-methylenedioxy-indol-2-yl, 5,6-methylenedioxy-indol-3-Yl)-butane] | 23.9 ± 0.7 µM | 30.1 ± 4 µM |  |  |  |  |  |  |  | 
CC1=C(/C=C/C(C)=C/C=C/C(C)=C/C(=O)O)C(C)(C)CCC1 [ATRA, all-trans retinoic acid, reference compound] |  |  |  |  |  |  |  |  |  | APOPTOSIS [4]: 10 and 17.5 and 12.5; G0/G1 [4]: 54.6 and 65.0 and 55.8; G2/M [4]: 14.4 and 11.0 and 17.3; S [4]: 31.0 and 24.0 and 26.9; G0/G1 [5]: 63.3 and 63.4; G2/M [5]: 11.0; S [5]: 25.7 and 25.6
CC1(C)OCC(C(O)C2OC(C)(C)OC2C(c2c[nH]c3ccccc23)c2c[nH]c3ccccc23)O1 [ST 1339, 2,3-5,6-di-O-isopropylidene-1,1-di-indol-3-yl-1-deoxy-D-mannitol] |  |  | 11 ± 0.6 µM | 98.2 ± 12 µM |  |  |  |  |  | IC50 [8]: 56.1 ± 11 µM
OC[C@@H](O)[C@@H](O)[C@H](O)[C@@H](O)C(c1c[nH]c2ccccc12)c1c[nH]c2ccccc12 [ST 1350, 1,1-di-indol-3-yl-1-deoxy-D-glucose] |  |  | > 500 µM | 70.8 ± 3.7 µM |  |  |  |  |  | IC50 [8]: 81.4 ± 8 µM
CC1(C)O[C@@H]([C@H](O)[C@H]2COC(C)(C)O2)[C@@H](C(c2c[nH]c3ncccc23)c2c[nH]c3ncccc23)O1 [ST 1353, 2,3-5,6-di-O-isopropylidene-1,1-di-7-azaindol-3-yl-1-deoxy-D-mannitol] |  |  | 367 ± 82 µM | > 500 µM |  |  |  |  |  | 
CC(=O)OC[C@@H](OC(C)=O)[C@@H](OC(C)=O)[C@H](OC(C)=O)[C@@H](OC(C)=O)C(c1c[nH]c2ccccc12)c1c[nH]c2ccccc12 [ST 1363, 1,1-di-indol-3-yl-1-deoxy-pentaacetyl-D-glucose] | 31.3 ± 1.6 µM | 25 ± 2.8 µM | 121 ± 12 µM | 65.4 ± 0.7 µM |  |  |  |  |  | IC50 [3]: 33.6 ± 5.9 µM
CC(=O)OCCCCC(c1c[nH]c2ccccc12)c1c[nH]c2ccccc12 [ST 1371, 5-acetoxy-1,1-diindol-3-yl-pentane] |  |  |  |  | 33 ± 3 µM | 27.7 ± 4.2 µM | 47.9 ± 4.7 µM | 74.1 ± 2.5 µM | 53 ± 0.4 µM | 
FCCCCC(c1c[nH]c2ccccc12)c1c[nH]c2ccccc12 [ST 1382, 1,1-(diindol-3-yl)-5-fluoro-pentane] | 33.5 ± 3.7 µM | 28.5 ± 6 µM | 34.3 ± 6.9 µM | 40.2 ± 3 µM |  |  |  |  |  | IC50 [3]: 40.2 ± 4.1 µM; IC50 [8]: 12.5 ± 0.3 µM
CCCC(c1c[nH]c2ccccc12)c1c[nH]c2ccccc12 [ST 1385, 1,1-di-indol-3-yl-butane] |  |  |  |  | 26.4 ± 0.4 µM | 27 ± 3.2 µM | 17.6 ± 0.9 µM | 34.6 ± 2 µM | 33.6 ± 2.9 µM | IC50 ([3]; Homo sapiens, MES-SA): 19.5 ± 4 µM
CCCC(c1c[nH]c2ccc(O)cc12)c1c[nH]c2ccc(O)cc12 [ST 1393, 1,1-di-(5-hydroxyindol-3-yl)-butane] |  |  |  |  | 3 ± 0.5 µM | 5.9 ± 0.8 µM | 2.7 ± 0.4 µM | 9.2 ± 0.4 µM | 7.5 ± 0.3 µM | IC50 ([3]; Homo sapiens, MES-SA): 5.7 ± 0.1 µM
CCCC(c1c[nH]c2ccc([N+](=O)[O-])cc12)c1c[nH]c2ccc([N+](=O)[O-])cc12 [ST 1429, 1,1-di-(5 nitroindol-3-yl)-butane] |  |  |  |  | 23.6 ± 0.5 µM | 10.4 ± 0.3 µM | 10.2 ± 0.5 µM | 12.9 ± 0.7 µM | 15.3 ± 0.4 µM | IC50 ([3]; Homo sapiens, MES-SA): 15 ± 2.5 µM
CCOC(=O)c1ccc(C(c2ccccc2)c2ccc(C(=O)OCC)[nH]2)[nH]1 [ST 1431, di-(5-ethoxycarbonyl-pyrrol-2-yl)-phenyl-methane] |  |  |  |  | 35.6 ± 0.5 µM | 20.3 ± 1.4 µM |  |  |  | 
CCCC(c1c[nH]c2ccc(N)cc12)c1c[nH]c2ccc(N)cc12 [ST 1437, 1,1-di-(5-amino-indol-3-yl)-butane. 2HCl] | 16.7 ± 3.4 µM | 8.3 ± 1.2 µM | 8 ± 0.6 µM |  |  |  |  |  |  | IC50 [3]: 4.4 ± 0.06 µM; IC50 [8]: 12.2 ± 0.8 µM
CCCC(c1c[nH]c2ccc(F)cc12)c1c[nH]c2ccc(F)cc12 [ST 1438, 1,1-di-(5-fluoroindol-3-yl)-butane] |  |  |  |  | 20 ± 0.8 µM | 28.1 ± 0.9 µM | 25.9 ± 3.1 µM | 41.8 ± 5.3 µM | 35.6 ± 1.7 µM | IC50 ([3]; Homo sapiens, MES-SA): 21.8 ± 4.4 µM
OC(c1ccccc1)(c1nccn1Cc1ccccc1)c1nccn1Cc1ccccc1 [ST 1440, phenyl, hydroxy, di-(N,N-dibenzyl-imidazol-2-yl) methane] | 11.7 ± 0.2 µM | 17 ± 2.9 µM | 4.6 ± 0.6 µM | 29.7 ± 2.6 µM |  |  |  |  |  | IC50 [3]: 4.7 ± 0.4 µM; IC50 [8]: 14.9 ± 2.5 µM
O=C(c1cn(Cc2ccccc2)c2ccccc12)c1cn(Cc2ccccc2)c2ccccc12 [ST 1473, di-(N-benzyl-indol-3-yl)-oxomethane] |  |  |  |  |  |  | 8.6 ± 2.9 µM | > 500 µM | > 500 µM | 
CCCC(c1c[nH]c2ccc(NC(C)=O)cc12)c1c[nH]c2ccc(NC(C)=O)cc12 [ST 1477, 1,1-di-(5-acetamido-indol-3-yl)-butane] |  |  |  |  | 59.4 ± 6.9 µM | 33.1 ± 2.9 µM |  |  |  | IC50 ([3]; Homo sapiens, MES-SA): 28.7 ± 0.2 µM
CCCC(c1c[nH]c2cc3c(cc12)OCO3)c1c[nH]c2cc3c(cc12)OCO3 [ST 1478, 1,1-di-(5,6-methylenedioxy-indol-3-yl)-butane] |  |  |  |  | 15.4 ± 1.8 µM | 11.8 ± 0.4 µM | 10.7 ± 0.6 µM | 15.2 ± 1.9 µM | 7.8 ± 1.5 µM | IC50 ([3]; Homo sapiens, MES-SA): 17 ± 2 µM
c1ccc2c(C(c3c[nH]c4ccccc34)C3CCCCC3)c[nH]c2c1 [ST 1487, 1,1-di-(indol-3-yl)-cyclohexylmethane] | 24.9 ± 0.1 µM | 29.9 ± 0.006 µM | 27.8 ± 2.1 µM | 15.3 ± 1 µM |  |  |  |  |  | IC50 [3]: 38.7 ± 0.03 µM; IC50 [8]: 16 ± 3.5 µM
CS(=O)(=O)OCCCCC(c1c[nH]c2ccccc12)c1c[nH]c2ccccc12 [ST 1488, 1,1-di-(indol-3-yl)-5-mesyloxy-pentane] |  |  |  |  | 11 ± 1.6 µM | 13.4 ± 2.2 µM | 18.1 ± 0.6 µM | 9.7 ± 1.3 µM | 10.3 ± 1.9 µM | IC50 ([3]; Homo sapiens, MES-SA): 15.8 ± 1.8 µM
CCC=C(c1cn(Cc2ccccc2)c2ccccc12)c1cn(Cc2ccccc2)c2ccccc12 [ST 1492, 1,1-di-(N-benzyl-indol-3-yl)-1-butene] |  |  |  |  |  |  | > 350 µM |  | 178 ± 41 µM | 
CCCc1c(C(=O)c2cn(Cc3ccccc3)c3ccccc23)c2ccccc2n1Cc1ccccc1 [ST 1494, (N-benzyl-indol-3-yl, N-benzyl-2-propyl indol-3-yl)-oxomethane] |  |  | > 200 µM | > 200 µM |  |  |  |  |  | IC50 [8]: > 200 µM
OCCCC(c1c[nH]c2cc3c(cc12)OCO3)c1c[nH]c2cc3c(cc12)OCO3 [ST 1730, 4-hydroxy-1,1-di-(5,6-methylenedioxy-indol-3-yl)-butane] |  |  |  |  | 9.3 ± 0.9 µM | 24.5 ± 3.7 µM |  |  |  | 
